Three compounds from patent US10898420B2, “Compositions containing phenolic compounds having synergistic antioxidant benefits” (L'OREAL, priority 2016, dated 2021) can be followed below.

A short description of assay [1]: Hydroxyl oxygen radical absorbance capacity (HORAC) assay, fluorescent probe with hydrogen peroxide and Cobalt(II) fluoride, Gallic acid standard. The note with it: individual antioxidant compound. The procedure: (§1) Synergism was determined by comparing the antioxidant capacities of combinations of components measured by ORAC and HORAC, with expected or additive values of the individual compounds. The […], measure two different antioxidant properties, radical chain breaking and prevention of radical formation. The ORAC and HORAC assays are both fluorometric assays that use hydrogen atom transfer chemistry to detect oxidation of a fluorescent probe. In the ORAC assay, a free radical initiator is used to produce peroxyl radical probes, while in the HORAC assay, a hydroxyl radical initiator and fenton reagent are used to produce hydroxyl radical probes.
(§2) As reflected in the Examples below, the expected ORAC/HORAC is the combined (additive) antioxidant capacity of each individual antioxidant compound in the association, measured individually and assuming that each is functioning independently. The expected ORAC or HORAC value of a certain association can be calculated by using the following equation: ORAC or HORAC (total)=sum of ORAC or HORAC (compound n, individually) multiplied by the Percentage (compound n, of use in a cosmetic composition), n=1, 2, 3 . . . .
Similar to the ORAC assay, the HORAC assay is an in tubo assay designed to quantify the capacity of an antioxidant to avert the hydroxyl radical or anti-Fenton reaction. The hydroxyl radical, generated from hydrogen peroxide and Cobalt(II) fluoride (Fenton reaction), will quench a fluorescent probe by a hydrogen atom transfer reaction. Certain antioxidants can chelate the Co(II), preventing the generation of the hydroxyl radical and initially block or prevent the quenching of the probe. By quantifying the decay of fluorescence using a fluorometer, the degree of protection is determined comparing with a standard control antioxidant Gallic acid. The result is expressed in μMol equivalent of Gallic acid. Equipment that can automatically measure and calculate the capacity is commercially available, such as the VarioSkan flash microplate reader from Thermo Scientific. […]

Assay [2] is described as follows: Oxygen radical absorbance capacity (ORAC) assay, fluorescein probe with AAPH, Trolox standard. The note with it: individual antioxidant compound. The procedure: as §1, §2
The ORAC assay is one of most commonly used methods to evaluate the capacity of antioxidants against ROS (reactive oxygen species), specific for peroxyl which is one of the most important free radicals present in the human skin environment. […] Azo-initiators are considered to produce the peroxyl radical by heating, which damages the fluorescent molecule, resulting in the loss of fluorescence. […] By quantifying the decay of fluorescence using a fluorometer, the degree of protection is determined comparing with a standard control antioxidant Trolox. […] Equipment that can automatically measure and calculate the capacity is commercially available, such as the VarioSkan flash microplate reader from Thermo Scientific.
References disclosing ORAC assays include: Cao G, Alessio H, Cutler R (1993). “Oxygen-radical absorbance capacity assay for antioxidants”. […]

Consider `O=C1O[C@H]([C@@H](O)CO)C(O)=C1O` [Vitamin C, ascorbic acid], for which the HORAC entry in assay [1] is listed as “No activity”. Moreover, the ORAC in assay [2] was determined as 4456 μmolTolox/g.
Take `O=C(O)[C@H]1O[C@@H](Oc2cc3oc(-c4ccccc4)cc(=O)c3c(O)c2O)[C@H](O)[C@@H](O)[C@@H]1O` [baicalin]: in assay [1], the HORAC was 2592 μmolGAE/g. In assay [2], the ORAC was 4759 μmolTolox/g.
The matching figures for `COc1cc(/C=C/C(=O)O)ccc1O` [ferulic acid]: 9868 μmolGAE/g and 14272 μmolTolox/g.
